Each structure is given as a SMILES string.
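Wherever ID50 is given: blockade of Ca2+-dependent contraction driven by muscarinic receptors in longitudinal smooth muscle strips of guinea pig ileum.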

For one data set, the species on record is Cavia porcellus. The experiment in a line: Negative logarithm antagonist concentration causing 50% inhibition of tonic CD response in the guinea pig ileal longitudinal smooth muscle preparation. It counts as functional, Muscle tissue.
Details: not given
On to `COC(=O)C1=C(C)N=C(C)/C(=C(/O)OC)C1C1=CC=CN(C(=O)Oc2ccccc2)C1` (stereo not given), for which the “-Log ID50” value is on record as 5.43. Same read-out and setting: the same measure for `COC(=O)C1=C(C)N=C(C)/C(=C(/O)OC)C1C1=CC=CN(C(=O)OC(C)(C)C)C1` (stereo not given): 5.24; for `COC(=O)C1=C(C)N=C(C)/C(=C(/O)OC)C1C1=CC=CN(C(=O)OC)C1` (stereo not given): 6.23. Regarding `CC1=NC(C)=C(C(=O)OC(C)C)C(C2=CC=CN(C(=O)Oc3ccccc3)C2)/C1=C(\O)OC(C)C` (stereo not given), the “-Log ID50” value is listed as 5.78.

Another data set has as its target Voltage-gated L-type calcium channel (Homo sapiens, UniProt Q13936+Q13698+Q01668+O60840). The data set can be described thus: Negative log antagonist concentration causing 50% displacement of [3H]nifedipine from guinea pig ileal smooth muscle membrane. It is filed as tissue-based, Cavia porcellus, Muscle tissue. The conditions noted are these: target entry is the homologue from another species.
As for `COC(=O)C1=C(C)NC(C)=C(C(=O)OC)C1c1ccccc1[N+](=O)[O-]` [NIFEDIPINE], the “-Log KD50” value worked out at 9.08.

A further data set addresses Muscarinic acetylcholine receptor (Homo sapiens) (UniProt P20309+P08173+P11229+P08172+P08912). Conditions: Cavia porcellus.
Description: Inhibition of muscarinic receptor mediated [Ca2+] dependent contraction of guinea pig ileal longitudinal smooth muscle.
`COC(=O)N1C=CC(C2C(C(=O)OCC(C)C)=C(C)N=C(C)/C2=C(/O)OC)=CC1` (stereo not given) had an ID50 of 1.76 µM. As for `COC(=O)N1C=CC=C(C2C(C(=O)OCC(C)C)=C(C)N=C(C)/C2=C(/O)OC)C1` (stereo not given), the ID50 came out at 0.031 µM. The same measure, in the same setting: with `COC(=O)N1C=CC(C2C(C(=O)OC(C)C)=C(C)N=C(C)/C2=C(/O)OC(C)C)=CC1` (stereo not given) the figure was 1.01 µM; with `COC(=O)N1C=CC=C(C2C(C(=O)OC(C)C)=C(C)N=C(C)/C2=C(/O)OC)C1` (stereo not given), 0.158 µM; with `COC(=O)N1C=CC=C(C2C(C(=O)OC(C)C)=C(C)N=C(C)/C2=C(/O)OC(C)C)C1` (stereo not given), 0.131 µM. The same measure, in the same setting: the same measure for `CO/C(O)=C1\C(C)=NC(C)=C(C(=O)OCC(C)C)C1C1=CCN(C(=O)OC(C)(C)C)C=C1` (stereo not given): 1.18 µM; for `COC(=O)C1=C(C)N=C(C)/C(=C(/O)OC)C1C1=CC=CN(C(=O)Oc2ccccc2)C1` (stereo not given): 3.69 µM; for `COC(=O)N1C=CC(C2C(C#N)=C(C)NC(C)=C2C#N)=CC1`: 67.5 µM.

`COC(=O)N1C=CC=C(C2C(C#N)=C(C)N=C(C)/C2=C(/O)OC)C1` (stereo not given) had an ID50 of 51.6 µM. Same read-out and setting: the same measure for `COC(=O)N1C=CC(C2C(C(=O)OCC(C)C)=C(C)N=C(C)/C2=C(/O)OCC(C)C)=CC1` (stereo not given): 1.72 µM.

In turn, `CO/C(O)=C1\C(C)=NC(C)=C(C(=O)OCC(C)C)C1C1=CCN(C(=O)Oc2ccccc2)C=C1` (stereo not given) registered an ID50 of 81 µM. Same read-out and setting: with `CO/C(O)=C1\C(C)=NC(C)=C(C(=O)OCC(C)C)C1C1=CC=CN(C(=O)OC(C)(C)C)C1` (stereo not given) the figure was 0.128 µM; with `CO/C(O)=C1\C(C)=NC(C)=C(C(=O)OC(C)C)C1C1=CC=CN(C(=O)Oc2ccccc2)C1` (stereo not given), 0.9 µM; with `CC1=NC(C)=C(C(=O)OCC(C)C)C(C2=CCN(C(=O)OC(C)(C)C)C=C2)/C1=C(\O)OCC(C)C` (stereo not given), 2.03 µM. The same measure, in the same setting: with `CCOC(=O)C1=C(C)N=C(C)/C(=C(/O)OCC)C1C1=CC=CN(C(=O)Oc2ccccc2)C1` (stereo not given) the figure was 0.865 µM; with `CO/C(O)=C1\C(C)=NC(C)=C(C(=O)OCC(C)C)C1C1=CC=CN(C(=O)Oc2ccccc2)C1` (stereo not given), 0.045 µM; with `COC(=O)C1=C(C)N=C(C)/C(=C(/O)OC)C1C1=CC=CN(C(=O)OC(C)(C)C)C1` (stereo not given), 5.77 µM. `CC1=NC(C)=C(C(=O)OCC(C)C)C(C2=CC=CN(C(=O)Oc3ccccc3)C2)/C1=C(\O)OCC(C)C` (stereo not given) came in with an ID50 of 6.46 µM. Consider `CC1=NC(C)=C(C(=O)OCC(C)C)C(C2=CCN(C(=O)Oc3ccccc3)C=C2)/C1=C(\O)OCC(C)C` (stereo not given), for which the ID50 was 0.51 µM. With `CC1=NC(C)=C(C(=O)OC(C)C)C(C2=CC=CN(C(=O)OC(C)(C)C)C2)/C1=C(\O)OC(C)C` (stereo not given), the ID50 came out at 0.114 µM. On the same count and under the same terms, the same measure for `CCOC(=O)C1=C(C)N=C(C)/C(=C(/O)OCC)C1C1=CC=CN(C(=O)OC(C)(C)C)C1` (stereo not given): 0.672 µM; for `COC(=O)N1C=CC=C(C2C(C#N)=C(C)NC(C)=C2C#N)C1`: 33.9 µM. Turning to `COC(=O)C1=C(C)N=C(C)/C(=C(/O)OC)C1C1=CC=CN(C(=O)OC)C1` (stereo not given), the ID50 was 0.589 µM. Still for that read-out and setting: with `COC(=O)C1=C(C)N=C(C)/C(=C(/O)OC)C1C1=CCN(C(=O)OC)C=C1` (stereo not given) the figure was 7.47 µM.

The molecule `COC(=O)N1C=CC=C(C2C(C(=O)OCC(C)C)=C(C)N=C(C)/C2=C(/O)OCC(C)C)C1` (stereo not given) gave an ID50 of 0.771 µM. For `CC1=NC(C)=C(C(=O)OCC(C)C)C(C2=CC=CN(C(=O)OC(C)(C)C)C2)/C1=C(\O)OCC(C)C` (stereo not given), the ID50 is 3.42 µM. The same measure, in the same setting: the same measure for `CC1=NC(C)=C(C(=O)OC(C)C)C(C2=CC=CN(C(=O)Oc3ccccc3)C2)/C1=C(\O)OC(C)C` (stereo not given): 1.67 µM; for `CO/C(O)=C1\C(C)=NC(C)=C(C(=O)OC(C)C)C1C1=CC=CN(C(=O)OC(C)(C)C)C1` (stereo not given): 0.237 µM. `CCOC(=O)C1=C(C)N=C(C)/C(=C(/O)OCC)C1C1=CC=CN(C(=O)OC)C1` (stereo not given) yielded an ID50 of 0.18 µM. `CCOC(=O)C1=C(C)N=C(C)/C(=C(/O)OCC)C1C1=CCN(C(=O)OC)C=C1` (stereo not given): the ID50 is 2.43 µM.

Values taken from ChEMBL document CHEMBL1123713, “Synthesis and calcium channel antagonist activity of dialkyl 4- (dihydropyridinyl)-1,4-dihydro-2,6-dimethyl-3,5-pyridinecarboxylates” (J Med Chem, 1987).
